Data on one compound can be found in article PMC9166630, “SAR Probing of KX2-391 Provided Analogues With Juxtaposed Activity Profile Against Major Oncogenic Kinases” (Frontiers in Oncology, 2022).

One assay concerns ERK1/2. The experiment in a line: Human phosphokinase array, ERK1/2. In kind it is cell-based. The source says: The kinome tree representation (Figure 7C), which was generated by raising the Kinase Score cut-off to >1.2, confirmed that, unlike tirbanibulin and our prototype molecule KX1-136, 4e’s effects were more observable on kinases other than the Src family such as the Eph and TEC families. […] Therefore, we screened compound 4e using the Human Phospho-Kinase Array® kit from R&D systems (Minneapolis, MN, USA). In this system, 35 phosphorylated YK and serine-threonine kinase (STK) enzymes in the untreated (control) and treated (test) HL60 cell lysates were captured on nitrocellulose membrane, pre-spotted with phosphokinase-specific capture antibodies, and then visualized by detection antibody cocktails (Figure 8). The difference in the spot intensity between untreated (control) and treated cells is proportional to change in the amount of the phosphorylated protein induced by 4e.
The phosphorylation profile of 48 kinases was performed using the Proteome Profiler Human Phospho-Kinase Antibody Array Kit by R&D Systems (Minneapolis, MN, USA) according to the protocol. Briefly, the total cellular protein was extracted using the Lysis buffer and was quantified using Bio-Rad DC Protein Assay kit (Hercules, CA, USA). Nitrocellulose membrane set (A&B), pre-spotted with kinase-specific capture antibodies, were first blocked with Array Buffer-1 at RT for 30 min on a rocking platform shaker. Approximately 600 µg of protein concentrate was diluted in the buffer provided and was added onto the membrane set, and the membranes were incubated overnight at 4°C in an 8-well plate. Subsequently, membranes were washed with Wash Buffer and incubated with appropriate Detection Antibody cocktails for 2 h at RT. Streptavadin-HRP (1:2000) was added onto membranes and incubated for 30 min at RT. Membranes were washed, and Chemiluminescent Detection Reagents 1&2 were applied in equal volumes for detection. The signals were detected on C-DiGit®Blot Scanner (LI-COR, Odyssey Imaging Systems, Lincoln, Nebraska, USA) using Image Studio 5.0 software.

The target in another assay is T1, EphA1 (Homo sapiens, UniProt P21709).
T1 construct: endogenous in cells; host or cells: HL60 lysate
T1 sequence (P21709 26-976): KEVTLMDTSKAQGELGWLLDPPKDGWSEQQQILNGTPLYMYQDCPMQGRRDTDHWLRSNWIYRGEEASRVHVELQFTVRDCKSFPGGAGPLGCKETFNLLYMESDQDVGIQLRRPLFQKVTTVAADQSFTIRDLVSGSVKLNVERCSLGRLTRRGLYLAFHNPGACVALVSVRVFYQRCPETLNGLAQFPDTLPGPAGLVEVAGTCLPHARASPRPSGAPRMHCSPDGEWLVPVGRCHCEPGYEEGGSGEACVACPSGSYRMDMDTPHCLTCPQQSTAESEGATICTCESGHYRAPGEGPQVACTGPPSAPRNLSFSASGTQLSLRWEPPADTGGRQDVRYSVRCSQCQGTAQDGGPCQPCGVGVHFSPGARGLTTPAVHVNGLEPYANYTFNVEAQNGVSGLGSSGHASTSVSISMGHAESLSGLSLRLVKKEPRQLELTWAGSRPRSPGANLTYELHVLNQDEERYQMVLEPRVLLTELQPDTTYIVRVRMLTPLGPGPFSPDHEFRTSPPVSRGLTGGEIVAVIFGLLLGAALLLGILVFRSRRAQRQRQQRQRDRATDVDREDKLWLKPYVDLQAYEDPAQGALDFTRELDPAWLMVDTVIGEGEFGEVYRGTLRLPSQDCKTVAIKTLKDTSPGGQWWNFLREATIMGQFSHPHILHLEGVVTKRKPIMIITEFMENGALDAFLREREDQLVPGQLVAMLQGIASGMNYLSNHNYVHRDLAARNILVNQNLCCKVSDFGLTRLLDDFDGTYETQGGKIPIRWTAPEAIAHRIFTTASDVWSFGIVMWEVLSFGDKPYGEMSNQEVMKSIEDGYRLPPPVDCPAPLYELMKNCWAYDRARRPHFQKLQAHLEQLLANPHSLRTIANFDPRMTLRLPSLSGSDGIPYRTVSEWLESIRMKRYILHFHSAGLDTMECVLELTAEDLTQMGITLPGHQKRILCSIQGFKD
The assay can be described thus: PamChip tyrosine kinase microarray, EphA1. In kind it is biochemical. To be noted: 4e 0.1 µM, HL60 lysate. As to the method: (§1) The changes in kinase activities induced by treatment with 4e were monitored within the HL60 cell lines using PamGene’s (Hertogenbosch, Netherlands) PamChip® peptide microarray profiler, which quantifies the activities of 144 tyrosine kinases (YK) ([29], [30]) (Figure 7). Results are provided as a log fold change (LFC) heatmap and Mean Kinase Statistic. From the LFC it is apparent that compound 4e, at a concentration of 0.1 µM, induced sizable changes to the activity of several kinases within the cell signaling YK profile (Figure 7A).
(§2) An Upstream Kinase tool was used to generate a putative list of kinases responsible for phosphorylating the phospho-sites on the PamChip (Figure 7B) ([31]). It is an interpretation and is highly dependent on the contents of the underlying phosphorylation databases. A Kinase Score was used for ranking kinases based on their significance and specificity in terms of the set of peptides used for the corresponding kinase. Kinase Statistics indicates the overall change of the peptide set that represents the kinase. Kinase statistics value <0 indicates lower kinase activity in the compound spiked lysate and vice versa ([32], [33]). Table 5 lists the 20 most changed kinases within treated HL60 cell lysates by 0.1 μM 4e, ranked according to their Kinase Score.
(§3) The compound 4e was spiked into HL60 cell lysate at different concentrations (0.001, 0.01, 0.1, 1, 10 and 50 μM). In addition, DMSO was also spiked in HL60 lysate at low concentration (2% v/v) as control. Samples were profiled on PamGene’s Tyrosine Kinase (PTK) arrays in technical replicates, covering a total of 196 phosphorylation sites. Frozen HL60 cultured cell pellet was sent to PamGene. At PamGene, cells were lysed using a lysis buffer and proteases inhibitors cocktail. Protein concentration was measured using standard Bradford assay as per PamGene SOPs. These lysates were further used for generating the PTK activity profiles. For spiking, 4e was received as powder form and dissolved in DMSO at PamGene facility followed by storing at -20°C in small aliquots. PamGene used its in-house bioinformatics toolbox in combination with other methods to generate hypotheses of signaling pathways.

A further assay has as its system PDGFR[beta]. The experiment in a line: PamChip tyrosine kinase microarray, PDGFR[beta]. In kind it is biochemical, human. Conditions: 4e 0.1 µM, HL60 lysate. How it is done: as §1, §2, §3

`O=C(Cc1ccc(NC(=O)c2cccc(Cl)c2)cc1)NCc1ccccc1` [Compound 4e, N-(4-(2-(benzylamino)-2-oxoethyl)phenyl)-3-chlorobenzamide]: in the assay on ERK1/2 (HL60, kinase profiling), the “reduction of ERK1/2 activity” value is recorded as above 99%. Further, the “phosphokinase signal after 4e exposure, ERK1/2” value with ERK1/2 (HL60 cell lysate, treated) turned out to be 1.05. Moreover, in the assay on ERK1/2 (treated vs untreated HL60), the “% Change, ERK1/2” value is on record as -99.41% and the “Change in Signal, ERK1/2” value is recorded as -177.83. On EphA1, the “Mean Final Score” value was determined as 1.8401, the “Mean Kinase Statistic” value is on record as -0.6954, the “Mean Significance Score” value is reported as 1.1254 and the “Mean Specificity Score” value worked out at 0.7147. In the assay on PDGFR[beta], the “Mean Final Score” value worked out at 1.8565, the “Mean Kinase Statistic” value is on record as -0.5885, the “Mean Significance Score” value turned out to be 1.2570 and the “Mean Specificity Score” value is 0.5995.
